Measurements as given in article PMC2248166, “Quantitative peptide binding motifs for 19 human and mouse MHC class I molecules derived using positional scanning combinatorial peptide libraries” (Immunome Research, 2008).

biological target: HLA B*5301 (Homo sapiens, UniProt P01889, A329T/A93T/A95T/C349S/D201E/D98Y/E176V/E187L/E204Q/E69T/G107R/I218V/K202T/L105A/L119I/N104I/Q94N/R106L/R155S/R180L/S101N/S121R/S35A/S48A/T118I/V127L/V306I/V36M/Y140S/Y91F); assay: not given; type: binding; conditions: not given

Sequence | Normalized average relative binding affinity (ARB), HLA B*5301
FXXXXXXXX [3064.0005] | 0.14
GXXXXXXXX [3064.0006] | 0.0086
HXXXXXXXX [3064.0007] | 1.0
IXXXXXXXX [3064.0008] | 0.15

biological target: HLA B*3501 (Homo sapiens, UniProt P01889, A329T/A93T/A95T/C349S/D201E/D98Y/E176V/E187L/E204Q/E69T/I218V/K202T/L119I/Q94N/R155S/R180L/S121R/S35A/S48A/T118I/V127L/V306I/V36M/Y140S/Y91F); assay: not given; type: binding; conditions: not given

Sequence | Normalized average relative binding affinity (ARB), HLA B*3501
FXXXXXXXX [3064.0005] | 0.50
GXXXXXXXX [3064.0006] | 0.030
HXXXXXXXX [3064.0007] | 1.0
IXXXXXXXX [3064.0008] | 0.30

biological target: HLA B*5101 (Homo sapiens, UniProt P01889, A329T/A93T/A95T/C349S/D138N/D201E/D98Y/E187L/E204Q/E69T/G107R/I218V/K202T/L105A/L119W/N104I/Q94N/R106L/R155S/R180L/S101N/S121T/S35A/S48A/V306I/V36M/Y195H/Y91F); assay: not given; type: binding; conditions: not given

Sequence | Normalized average relative binding affinity (ARB), HLA B*5101
FXXXXXXXX [3064.0005] | 0.25
GXXXXXXXX [3064.0006] | 0.028
HXXXXXXXX [3064.0007] | 0.15
IXXXXXXXX [3064.0008] | 0.23

biological target: HLA A*3001 (Homo sapiens, UniProt P04439, D140H/D185E/E176W/F33S/G80R/H175R/K168Q/R138E/R41S); assay: biochemical; type: binding; conditions: not given

Sequence | Normalized average relative binding affinity (ARB), HLA A*3001
FXXXXXXXX [3064.0005] | 0.035
GXXXXXXXX [3064.0006] | 0.11
HXXXXXXXX [3064.0007] | 0.49
IXXXXXXXX [3064.0008] | 0.11

biological target: H-2 K^k (Mus musculus, UniProt P04223); assay: not given; type: binding; conditions: not given
Sequence (P01887 21-119): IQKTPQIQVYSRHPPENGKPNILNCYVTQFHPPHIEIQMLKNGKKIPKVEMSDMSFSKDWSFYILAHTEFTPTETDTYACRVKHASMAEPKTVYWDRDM
Sequence (P04223 22-369): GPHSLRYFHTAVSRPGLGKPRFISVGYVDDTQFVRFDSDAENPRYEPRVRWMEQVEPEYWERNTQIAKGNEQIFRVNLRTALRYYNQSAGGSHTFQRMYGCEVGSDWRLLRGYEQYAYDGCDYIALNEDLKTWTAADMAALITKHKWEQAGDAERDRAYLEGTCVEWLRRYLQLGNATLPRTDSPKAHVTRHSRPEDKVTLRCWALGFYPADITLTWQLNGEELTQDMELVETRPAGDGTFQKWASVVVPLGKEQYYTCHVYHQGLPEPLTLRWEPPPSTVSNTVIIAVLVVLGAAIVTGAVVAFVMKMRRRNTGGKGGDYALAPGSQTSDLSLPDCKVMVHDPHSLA

Sequence | Normalized average relative binding affinity (ARB), H-2 Kk
FXXXXXXXX [3064.0005] | 1.0
GXXXXXXXX [3064.0006] | 0.14
HXXXXXXXX [3064.0007] | 0.91
IXXXXXXXX [3064.0008] | 0.27

biological target: HLA B*5801 (Homo sapiens, UniProt P01889, A329T/C349S/D201E/D98Y/E176V/E187L/E204Q/E69T/G107R/I218V/I90N/K202T/L105A/L119I/N104I/N87E/Q89R/Q94S/R106L/R155S/R180L/R86G/S101N/S121R/S35A/S48A/T118I/V127L/V306I/V36M/Y140S/Y91M); assay: not given; type: binding; conditions: not given

Sequence | Normalized average relative binding affinity (ARB), HLA B*5801
FXXXXXXXX [3064.0005] | 0.34
GXXXXXXXX [3064.0006] | 0.069
HXXXXXXXX [3064.0007] | 0.43
IXXXXXXXX [3064.0008] | 0.35

biological target: HLA B*1501 (Homo sapiens, UniProt P01889, A329T/A93T/A95T/C349S/D201E/D98Y/E187L/E204Q/E69M/E70A/K202T/N87E/Q94N/R155S/R180W/S121R/S35A/S48A/V306I/V36M/Y140S/Y91S); assay: biochemical; type: binding; conditions: not given

Sequence | Normalized average relative binding affinity (ARB), HLA B*1501
FXXXXXXXX [3064.0005] | 0.59
GXXXXXXXX [3064.0006] | 0.43
HXXXXXXXX [3064.0007] | 0.59
IXXXXXXXX [3064.0008] | 1.0

biological target: HLA B*5401 (Homo sapiens, UniProt P01889, A329T/C349S/D138N/D201E/E176V/E187T/E204Q/E69G/I76V/K202T/L119W/R155S/R180L/S121T/S35A/S48A/V127L/V306I/V36M/Y140L); assay: not given; type: binding; conditions: not given

Sequence | Normalized average relative binding affinity (ARB), HLA B*5401
FXXXXXXXX [3064.0005] | 0.74
GXXXXXXXX [3064.0006] | 0.0071
HXXXXXXXX [3064.0007] | 0.34
IXXXXXXXX [3064.0008] | 0.27

biological target: HLA B*2705 (Homo sapiens, UniProt P01889, D138H/D201E/E176V/E204Q/G107R/H137Y/K202T/N104T/N87E/Q56L/Q94K/R106L/R155S/R180L/S101D/S121N/S48T/Y140D/Y33H/Y91C); assay: not given; type: binding; conditions: positional scanning combinatorial 9-mer library; normalized to 1.0 for the best residue at each position

Sequence | Normalized average relative binding affinity (ARB), HLA B*2705
FXXXXXXXX [3064.0005] | 0.60
GXXXXXXXX [3064.0006] | 0.60
HXXXXXXXX [3064.0007] | 0.49
IXXXXXXXX [3064.0008] | 0.22

biological target: H-2 D^d (Mus musculus, UniProt P01900); assay: not given; type: binding; conditions: not given
Sequence (P01900 whole entry, looked up): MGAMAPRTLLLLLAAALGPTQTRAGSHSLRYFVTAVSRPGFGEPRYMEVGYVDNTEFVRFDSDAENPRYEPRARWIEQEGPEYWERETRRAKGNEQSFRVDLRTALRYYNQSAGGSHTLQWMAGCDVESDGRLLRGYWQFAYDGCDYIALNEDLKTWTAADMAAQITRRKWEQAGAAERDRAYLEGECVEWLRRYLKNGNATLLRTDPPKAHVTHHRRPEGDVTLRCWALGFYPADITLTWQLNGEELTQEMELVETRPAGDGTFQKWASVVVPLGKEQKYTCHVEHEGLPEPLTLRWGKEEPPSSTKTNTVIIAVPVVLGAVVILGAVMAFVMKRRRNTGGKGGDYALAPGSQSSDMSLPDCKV

Sequence | Normalized average relative binding affinity (ARB), H-2 Dd
FXXXXXXXX [3064.0005] | 0.34
GXXXXXXXX [3064.0006] | 0.15
HXXXXXXXX [3064.0007] | 0.21
IXXXXXXXX [3064.0008] | 0.39

biological target: H-2 D^b (Mus musculus, UniProt P01899); assay: not given; type: binding; conditions: not given
Sequence (P01887 21-119): as the sequence (P01887 21-119) above
Sequence (P01899 25-362): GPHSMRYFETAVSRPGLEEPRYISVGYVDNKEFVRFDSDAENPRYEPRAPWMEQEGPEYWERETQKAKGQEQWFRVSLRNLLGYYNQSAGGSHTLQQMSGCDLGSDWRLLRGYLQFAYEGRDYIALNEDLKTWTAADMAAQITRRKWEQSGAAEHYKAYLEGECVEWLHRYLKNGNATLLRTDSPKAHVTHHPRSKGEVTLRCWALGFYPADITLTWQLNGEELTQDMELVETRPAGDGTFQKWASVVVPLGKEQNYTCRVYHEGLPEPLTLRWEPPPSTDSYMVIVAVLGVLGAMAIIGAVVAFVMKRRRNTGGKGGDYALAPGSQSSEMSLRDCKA

Sequence | Normalized average relative binding affinity (ARB), H-2 Db
FXXXXXXXX [3064.0005] | 1.0
GXXXXXXXX [3064.0006] | 0.096
HXXXXXXXX [3064.0007] | 0.17
IXXXXXXXX [3064.0008] | 0.13

biological target: HLA A*6802 (Homo sapiens, UniProt P04439, A269V/D140Y/D185E/E176V/E277Q/E87N/F33Y/G231S/I121R/I166T/I218V/L180W/L300P/L318F/N151K/P208A/P217A/Q86R/R138H/R169H/S129P/T345S/V36M); assay: not given; type: binding; conditions: not given

Sequence | Normalized average relative binding affinity (ARB), HLA A*6802
FXXXXXXXX [3064.0005] | 0.53
GXXXXXXXX [3064.0006] | 0.022
HXXXXXXXX [3064.0007] | 0.53
IXXXXXXXX [3064.0008] | 0.076

biological target: HLA B*0702 (Homo sapiens, UniProt P01889); assay: not given; type: binding; conditions: positional scanning combinatorial 9-mer library; normalized to 1.0 for the best residue at each position

Sequence | Normalized average relative binding affinity (ARB), HLA B*0702
FXXXXXXXX [3064.0005] | 0.21
GXXXXXXXX [3064.0006] | 0.15
HXXXXXXXX [3064.0007] | 0.80
IXXXXXXXX [3064.0008] | 0.42

biological target: HLA A*0201 (Homo sapiens, UniProt P04439, D140Y/D185E/D98H/E176V/E277Q/G131W/G231S/I119V/I121R/I166T/I218V/L300P/L318F/N151K/N90K/P208A/P217A/Q86G/Q94H/R138H/R169H/T345S); assay: not given; conditions: positional scanning combinatorial 9-mer library; normalized to 1.0 for the best residue at each position

Sequence | Normalized average relative binding affinity (ARB), HLA A*0201
FXXXXXXXX [3064.0005] | 1.0
GXXXXXXXX [3064.0006] | 0.089
HXXXXXXXX [3064.0007] | 0.0048
IXXXXXXXX [3064.0008] | 0.12

biological target: HLA B*0801 (Homo sapiens, UniProt P01889, A93T/A95T/D138N/E176V/E187T/K202T/Q94N/R180D/S35A/V36M/Y33D/Y91F); assay: biochemical; type: binding; conditions: not given

Sequence | Normalized average relative binding affinity (ARB), HLA B*0801
FXXXXXXXX [3064.0005] | 0.57
GXXXXXXXX [3064.0006] | 0.088
HXXXXXXXX [3064.0007] | 0.18
IXXXXXXXX [3064.0008] | 0.068

biological target: HLA A*3201 (Homo sapiens, UniProt P04439, A270S/D101S/D185E/E176V/E277Q/F133L/G103R/G107R/G231S/H175R/I121M/I218V/I322F/K168Q/L105A/L300P/L318F/M331R/P208A/P217A/Q94H/R106L/R138Q/S129P/T104I/T323A/T345S/V100E/V321M/V358M); assay: biochemical; type: binding; conditions: not given

Sequence | Normalized average relative binding affinity (ARB), HLA A*3201
FXXXXXXXX [3064.0005] | 0.090
GXXXXXXXX [3064.0006] | 0.14
HXXXXXXXX [3064.0007] | 0.38
IXXXXXXXX [3064.0008] | 0.47

biological target: HLA B*1503 (Homo sapiens, UniProt P01889, A329T/A93T/A95T/C349S/D201E/D98Y/E187L/E204Q/K202T/N87E/Q94N/R155S/R180L/S121R/S35A/V306I/V36M/Y140S/Y91S); assay: biochemical; type: binding; conditions: not given

Sequence | Normalized average relative binding affinity (ARB), HLA B*1503
FXXXXXXXX [3064.0005] | 1.0
GXXXXXXXX [3064.0006] | 0.063
HXXXXXXXX [3064.0007] | 0.20
IXXXXXXXX [3064.0008] | 0.51

biological target: HLA B*5802 (Homo sapiens, UniProt P01889, A329T/C349S/D201E/D98Y/E176V/E187L/E204Q/E69T/G107R/I218V/I90N/K202T/L105A/N104I/N87E/Q89R/Q94S/R106L/R155S/R180L/R86G/S101N/S121W/S35A/S48A/V127L/V306I/V36M/Y140S/Y91M); assay: not given; type: binding; conditions: not given

Sequence | Normalized average relative binding affinity (ARB), HLA B*5802
FXXXXXXXX [3064.0005] | 0.081
GXXXXXXXX [3064.0006] | 0.14
HXXXXXXXX [3064.0007] | 0.026
IXXXXXXXX [3064.0008] | 0.17
